Test results: article PMC11245370, “3-Position Biaryl Endochin-like Quinolones with Enhanced Antimalarial Performance” (ACS Infectious Diseases, 2024)
Read-outs that look alike come from different tables or passages of the source.

Key:
[1] = tested on: P. yoelii blood-stage infection; conditions: mice
Method: (§1) On day 5, a drop of blood was taken from the tail, and a blood smear was prepared, fixed with methanol, and stained with Giemsa. The operator then examined the stained smear microscopically to determine percent parasitemia. […] In this model, animals were inoculated exactly as for the 4 day test on day 0; however, drug was administered only on day 1, whereas smears were made on day 5 and again weekly thereafter for animals that remained aparasitemic. Animals that remained aparasitemic on day 30 were scored as cures.
The P. yoelii 4 day test monitors suppression of patent infection in female CF1 mice. The test began with the inoculation (iv) of parasitized erythrocytes (3.5 × 10^4P. yoelli) (from a donor animal) on the first day of the experiment (D0). […] Initially, the 3-biaryl-ELQs were tested at doses of 0.0025, 0.005, 0.01, 0.03, 0.1, 0.3, 1.0, and 10 mg/kg/day, including a vehicle-only (PEG400) control. After completion of drug treatment, a blood sample was collected (by pricking the tail vein) for determination of parasite burden beginning on the day after the final dose (D5). Percent parasitemia was assessed by direct microscopic analysis of Giemsa-stained blood smears. […] Animals with observable parasitemia following the experiment were euthanized; animals cleared of parasites from the bloodstream were observed daily with assessment of parasitemia performed weekly until day 30, at which point the animals were scored as cured of infection. […] Nonlinear regression analysis was used for objective determination of ED50’s and ED90’s from the accumulated data as well as the nonrecrudescence dose (NRD). The 4 day test protocol was reviewed and approved by the local IACUC board at the Portland VA Medical Center. Experiments were performed with four mice per group to ensure statistical accuracy.

[2] = tested on: P. falciparum atovaquone-resistant clinical isolate Tm90-C2B; experiment: SYBR Green I antiplasmodial assay, Tm90-C2B; type: cell-based; conditions: Plasmodium falciparum, TM90, 72 h, read-out: P. falciparum IC50 values, Tm90-C2B
[3] = target: human liver cytochrome bc1 complex (Homo sapiens, UniProt P00156); parameters: method as in Nilsen et al., 2013; conditions: ref Nilsen et al., 2013; cited from earlier work
[4] = tested on: P. falciparum drug-sensitive D6 strain; experiment: SYBR Green I antiplasmodial assay, D6 strain; type: cell-based; conditions: Plasmodium falciparum, D6, 72 h, read-out: P. falciparum IC50 values, D6
[5] = tested on: P. falciparum multidrug-resistant Dd2 strain; experiment: microbe, parasite or virus in culture; type: cell-based; conditions: Plasmodium falciparum, DD2, 72 h, read-out: P. falciparum IC50 values, Dd2
[6] = HepG2 cytotoxicity / mitochondrial toxicity (TiterGlo ATP, galactose medium); conditions: human, HepG2 cells
[7] = tested on: P. yoelii blood-stage infection; experiment: Single-dose cure of blood-stage murine malaria; type: in vivo, Plasmodium yoelii; conditions: lowest single oral dose curing all four mice, day 30
Method: as §1
The effectiveness of selected 3-biaryl ELQs and prodrugs was assessed vs the blood-stage infection for single-dose cures. Mice were infected iv with 3.5 × 10^4P. yoelii infected RBCs as described for the 4 day test above. Drug administration occurred on the day after inoculation (day 1). Test agents were dissolved in PEG-400 and administered ig once. On the fifth day, blood films were prepared, and % parasitemia was assessed. Animals remaining parasite-free for 30 days after drug administration were considered cured. The initial dosing range was 0.25, 0.5, 1, 3, and 10 mg/kg, including a control. Experiments were performed with four mice per group to ensure statistical accuracy. The reported parameter for these studies is the lowest single dose that provides a cure to all four animals in the group.

[8] = ELQ-300, active metabolite of ELQ-331; comparison value, no reference given; cited from earlier work
[9] = tested on: P. falciparum drug-sensitive D6 strain; conditions: earlier work of the authors, no reference given; cited from earlier work
[10] = tested on: P. falciparum atovaquone-resistant clinical isolate Tm90-C2B; conditions: earlier work of the authors, no reference given; cited from earlier work
[11] = earlier work of the authors, no reference given; cited from earlier work
[12] = tested on: P. falciparum multidrug-resistant Dd2 strain; conditions: earlier work of the authors, no reference given; cited from earlier work
[13] = oral gavage days 1-4, parasitemia day 5, prodrugs dosed on molar equivalency to parent

SMILES: COc1cc2[nH]c(C)c(-c3ccc(Oc4ccc(OC(F)(F)F)cc4)cc3)c(=O)c2cc1Cl [ELQ-300]
- blood stage in vivo efficacy, 4 day Peters test results, NRD (nonrecrudescence dose) ([1]; oral gavage days 1-4, followed to day 30): 1.0 mg/kg/day
- blood stage in vivo efficacy, 4 day Peters test results, ED50 [1, 13]: 0.02 mg/kg/day
- blood stage in vivo efficacy, 4 day Peters test results, ED90 [1, 13]: 0.06 mg/kg/day
- IC50 [2]: 2.5 nM
- EC50 [3]: > 10000 nM
- IC50 [4]: 3.3 nM
- IC50 [5]: 4.2 nM
- IC50 at 24 h [6]: > 10000 nM
- blood stage in vivo efficacy, single dose cure [7]: >25 mg/kg/day
- elimination T1/2 [8]: 14.6 h

SMILES: COc1cc2[nH]c(C)c(-c3ccc(Oc4cccc(OC(F)(F)F)c4)cc3)c(=O)c2cc1Cl [ELQ-307]
- IC50 [9]: ≤ 0.03 nM
- IC50 [10]: ≤ 0.03 nM
- metabolic stability [11]: metabolically unstable
- IC50 [12]: ≤ 0.03 nM
